Holding throughout (assay): DTP human tumour cell line panel, 48 h
The test system of test [1] is RXF 393.
For test [2], the system named is A498.
Test [3] deals with SN12C.
Test [4] has as its system NCI-H522.
Test [5] deals with ACHN.
In test [6] the test system is HCT-116.
The test system of test [7] is RPMI-8226.
Test [8] concerns HCT-15.
The test system of test [9] is SF-268.
For test [10], the system named is UACC-62.
In test [11] the test system is MOLT-4.
The test system of test [12] is COLO 205.
Test [13] concerns SK-MEL-5.
Test [14] relates to OVCAR-3.
For test [15], the system named is UO-31.
In test [16] the test system is CAKI-1.
The test system of test [17] is KM12.
The test system of test [18] is HCC 2998.
The subject of test [19] is HL-60.
For test [20], the system named is MCF7.

SMILES strings stand for the structures.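 Results reflect a 48-hour exposure of cells in 96-well plates to compound at five concentrations. At the GI50, growth is halved.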 The source made the active and inactive calls. No stated cut-off is given here; in the data, active = GI50 up to about 1.1 µM and inactive = higher. Where only a bound is given, the exact number is not on record here.

As to `O=C(CCC(=O)Nc1ccc(Cl)c(Cl)c1)CC(=O)c1ccc(Br)cc1`, the GI50 (commonly the concentration giving 50% growth inhibition) in [1] was > 100 µM (inactive); in test [2], > 100 µM (inactive); in [3], > 100 µM (inactive); in test [4], > 100 µM (inactive); in test [5], 71.8 µM (inactive); in test [6], > 100 µM (inactive). The GI50 in [7] was > 100 µM (inactive); in test [8], 40.5 µM; in [9] it was > 100 µM (inactive); in [10], 36.2 µM (inactive); in test [11] it was > 100 µM (inactive); in test [12] it was > 100 µM (inactive). Besides, the GI50 in [13], in test [14], in [15], in [16] and in test [17] was > 100 µM (inactive) in each case.

`O=C(c1ccccc1)[C@@H]1C[C@H](Sc2ccccc2)c2cc(Cl)ccc2N1`: the GI50 in test [1] was 6.64 µM (inactive); in test [2], 11.5 µM (inactive); in [3], 15.7 µM (inactive); in test [4], 22.1 µM (inactive); in [5], 29.2 µM (inactive); in test [6], 23.1 µM (inactive). Besides, the GI50 is 23.7 µM (inactive) in test [7]; 25.4 µM in test [8]; 19 µM (inactive) in test [9]; 19.5 µM (inactive) in test [10]; 20.5 µM (inactive) in test [18]; 7.08 µM (inactive) in [11]. Moreover, the GI50 was 45.5 µM (inactive) in [12]; 11.7 µM (inactive) in test [13]; 23 µM (inactive) in test [14]; 12.7 µM (inactive) in test [15]; 42.2 µM (inactive) in test [16]; 57.5 µM (inactive) in [17].

`CCCCCCCCCCCCCCCCOCC(COP(=O)([O-])OCC[N+](C)(C)C)OCCCCCCCCCCCCCCCC` (stereo not drawn): the GI50 in test [1], in [2], in test [19], in [3], in [4] and in [6] was > 100 µM (inactive) each time. Besides, the GI50 is > 100 µM (inactive) in test [7]; above 100 µM in [8]; > 100 µM (inactive) in test [9]; > 100 µM (inactive) in [10]; > 100 µM (inactive) in test [18]; > 100 µM (inactive) in [11]. In addition, the GI50 in [12], in test [13], in [14], in [15], in test [16] and in [17] was > 100 µM (inactive) in each case.

For the molecule `COc1cc2c(c(OC)c1OC)-c1[nH]ncc1CC2`, the GI50 was > 100 µM (inactive) in [2]; > 100 µM (inactive) in [19]; > 100 µM (inactive) in [3]; > 100 µM (inactive) in test [5]; > 100 µM (inactive) in test [6]; above 100 µM in test [8]. The GI50 in test [9], in [10], in test [18], in [11], in test [12] and in test [13] was > 100 µM (inactive) throughout. In addition, the GI50 was > 100 µM (inactive) in test [14], > 100 µM (inactive) in test [15], 60.7 µM (inactive) in test [16] and > 100 µM (inactive) in test [17].

In the case of `CC(C)C1CN(C(=O)OCc2ccccc2)C2N1C(=O)C2(C)OCc1ccccc1` (stereo not drawn), the GI50 is 21.4 µM (inactive) in test [1]; 26.8 µM (inactive) in test [2]; 22.6 µM (inactive) in test [19]; 48.6 µM (inactive) in test [3]; 33 µM (inactive) in test [5]; 37.6 µM (inactive) in test [6]. The GI50 in test [7] is 21.4 µM (inactive); in test [8], 44.8 µM; in test [9], 44.6 µM (inactive); in test [10], 25.1 µM (inactive); in [18], 36.4 µM (inactive); in test [11], 24.4 µM (inactive). The GI50 in test [12] is 19.1 µM (inactive); in test [13] it was 16 µM (inactive); in test [14] it was > 100 µM (inactive); in test [15] it was 20.3 µM (inactive).

As for `Cn1c(=O)ccc2c(=O)c3ccccc3oc21`, the GI50 is 64.9 µM (inactive) in test [1]; > 100 µM (inactive) in [2]; > 100 µM (inactive) in test [19]; > 100 µM (inactive) in test [3]; > 100 µM (inactive) in [4]; > 100 µM (inactive) in [5]. For the same molecule, the GI50 in [6] is > 100 µM (inactive); in test [8], above 100 µM; in test [9] it was > 100 µM (inactive); in test [10], > 100 µM (inactive); in test [18], > 100 µM (inactive); in test [12], > 100 µM (inactive). Also, the GI50 in [13] was > 100 µM (inactive); in [14], > 100 µM (inactive); in [15], 4.68 µM (inactive); in test [16] it was > 100 µM (inactive); in test [17], > 100 µM (inactive).

With `O=C(NN1C(=O)C(Cl)C1c1cccc([N+](=O)[O-])c1)c1ccccc1O` (stereo not drawn), the GI50 in [1] was > 100 µM (inactive); in test [19] it was > 100 µM (inactive); in test [3] it was > 100 µM (inactive); in test [4], 28.3 µM (inactive); in test [6], > 100 µM (inactive); in [7], > 100 µM (inactive). In addition, the GI50 in [9], in test [10], in test [11], in [12], in [13] and in test [14] was > 100 µM (inactive) each time. For the same molecule, the GI50 is 71.9 µM (inactive) in test [15] and > 100 µM (inactive) in test [17].

As for `COc1ccccc1N1C(Cl)C(=O)C1c1c[nH]c2ccccc12` (stereo not drawn), the GI50 in [1], in test [19], in test [3], in test [4], in test [6] and in test [7] was > 100 µM (inactive) throughout. Also, the GI50 in test [9], in [10], in test [11], in [12], in test [13] and in test [14] was > 100 µM (inactive) in each case. Moreover, the GI50 in test [15] and in test [17] was > 100 µM (inactive) in each case.

For `O=C(Nc1ccc([N+](=O)[O-])cc1[N+](=O)[O-])C(=O)C(C(=O)c1ccc2ccccc2c1)C1OC(=O)c2ccccc21` (stereo not drawn), the GI50 was 12 µM (inactive) in test [1]; 17.6 µM (inactive) in test [2]; 12.3 µM (inactive) in test [19]; 17.8 µM (inactive) in [3]; 10.4 µM (inactive) in test [4]; 25.6 µM (inactive) in [5]. For the same molecule, the GI50 in test [6] was 17.6 µM (inactive); in [7], 9.44 µM (inactive); in [8], 15.9 µM; in [9], 8.89 µM (inactive); in [10], 16.6 µM (inactive); in test [18] it was 12.4 µM (inactive). The GI50 was 2.95 µM (inactive) in [11]; 15.8 µM (inactive) in test [12]; 15.3 µM (inactive) in [13]; 14 µM (inactive) in [15]; 21.7 µM (inactive) in test [16]; 22.4 µM (inactive) in test [17].

Consider `O=C(/C=C/CC(O)(c1ccccc1)c1ccccc1)Nc1ccccc1Cl`, for which the GI50 in test [2], in test [19], in test [3], in test [4], in test [5] and in test [6] was > 100 µM (inactive) in each case. In addition, the GI50 in test [7] was > 100 µM (inactive); in test [8], above 100 µM; in [9], > 100 µM (inactive); in test [10], > 100 µM (inactive); in [18], > 100 µM (inactive); in [11], > 100 µM (inactive). Further, the GI50 in test [12], in [13], in test [14], in test [15], in test [16] and in test [17] was > 100 µM (inactive) throughout.

As for `CC(=O)Nc1ccc(C2=N/C(=C\c3ccc(Cl)c(Cl)c3)C(=O)O2)cc1`, the GI50 in test [1], in test [2], in [19], in test [3], in test [4] and in [5] was > 100 µM (inactive) throughout. Also, the GI50 is > 100 µM (inactive) in test [6]; > 100 µM (inactive) in test [7]; above 100 µM in test [8]; > 100 µM (inactive) in [9]; > 100 µM (inactive) in test [10]; > 100 µM (inactive) in [18]. Further, the GI50 in test [11], in test [12], in test [13], in [14], in [15] and in [16] was > 100 µM (inactive) each time. Besides, the GI50 in test [17] is > 100 µM (inactive).

As for `COc1ccc(C(c2cc3c(cc2O)OCO3)N2CCOCC2)cc1OC` (stereo not drawn), the GI50 is 18.8 µM (inactive) in [1]; 25.4 µM (inactive) in test [19]; 10.2 µM (inactive) in test [3]; 3.28 µM (inactive) in test [4]; 11.4 µM (inactive) in [5]; 10.9 µM (inactive) in test [6]. Further, the GI50 in [20] is 12.8 µM (inactive); in [7], 2.66 µM (inactive); in test [8] it was 3.95 µM; in test [9], 10.9 µM (inactive); in [10], 5.75 µM (inactive); in [11], 3.48 µM (inactive). The GI50 in test [12] is 15.3 µM (inactive); in [13], 13.5 µM (inactive); in test [14], 7.8 µM (inactive); in [15], 11.1 µM (inactive); in test [16] it was 12.8 µM (inactive); in test [17] it was 12.4 µM (inactive).

The values above are taken from ChEMBL document CHEMBL1201862, “PubChem BioAssay data set” (2004).
